Here are results for 28 compounds from ChEMBL document CHEMBL1148674, “Morpholin-2-one derivatives as novel selective T-type Ca2+ channel blockers” (Bioorg Med Chem Lett, 2006).

For assay [1], the target named is Voltage-dependent T-type calcium channel subunit alpha-1H (Homo sapiens) (UniProt O95180). The assay can be described thus: Ability to block calcium channel T type 3.2v expressed in Xenopus oocytes at 100 uM by two-microelectrode voltage-clamp method. Type of assay: functional, cell-based. To be noted: Oocyte.
The target of assay [2] is T1, Voltage-dependent T-type calcium channel subunit alpha-1G (Homo sapiens, UniProt O43497). The assay can be described thus: Ability to block calcium channel T type 3.1v expressed in HEK293 cells by whole cell patch clamp method. Type of assay: functional, cell-based. For orientation: Patch clamp records ionic current or voltage across a cell membrane.
Assay [3] has as its target Voltage-dependent N-type calcium channel subunit alpha-1B (Homo sapiens) (UniProt Q00975). Nature of the assay: Ability to block calcium channel N type 2.2v expressed in HEK293 cells at 10 uM by whole cell patch clamp method. Type of assay: functional, cell-based.
A further assay is filed under the species Homo sapiens. The assay can be described thus: Selectivity for calcium channel N type 2.2v over calcium channel T type 3.1v. Format: functional.
The target of assay [4] is T1, Voltage-dependent T-type calcium channel subunit alpha-1G. The assay can be described thus: Ability to block calcium channel T type 3.1v expressed in HEK293 cells at 10 uM by whole cell patch clamp method. Format: functional, cell-based.

The structures appear in SMILES notation.

As a reminder, the inhibition is how much of the control response was suppressed. What is called IC50 is the midpoint of a concentration-inhibition curve.

Chain of Voltage-dependent N-type calcium channel subunit alpha-1B (Homo sapiens) (Q00975 whole entry, looked up): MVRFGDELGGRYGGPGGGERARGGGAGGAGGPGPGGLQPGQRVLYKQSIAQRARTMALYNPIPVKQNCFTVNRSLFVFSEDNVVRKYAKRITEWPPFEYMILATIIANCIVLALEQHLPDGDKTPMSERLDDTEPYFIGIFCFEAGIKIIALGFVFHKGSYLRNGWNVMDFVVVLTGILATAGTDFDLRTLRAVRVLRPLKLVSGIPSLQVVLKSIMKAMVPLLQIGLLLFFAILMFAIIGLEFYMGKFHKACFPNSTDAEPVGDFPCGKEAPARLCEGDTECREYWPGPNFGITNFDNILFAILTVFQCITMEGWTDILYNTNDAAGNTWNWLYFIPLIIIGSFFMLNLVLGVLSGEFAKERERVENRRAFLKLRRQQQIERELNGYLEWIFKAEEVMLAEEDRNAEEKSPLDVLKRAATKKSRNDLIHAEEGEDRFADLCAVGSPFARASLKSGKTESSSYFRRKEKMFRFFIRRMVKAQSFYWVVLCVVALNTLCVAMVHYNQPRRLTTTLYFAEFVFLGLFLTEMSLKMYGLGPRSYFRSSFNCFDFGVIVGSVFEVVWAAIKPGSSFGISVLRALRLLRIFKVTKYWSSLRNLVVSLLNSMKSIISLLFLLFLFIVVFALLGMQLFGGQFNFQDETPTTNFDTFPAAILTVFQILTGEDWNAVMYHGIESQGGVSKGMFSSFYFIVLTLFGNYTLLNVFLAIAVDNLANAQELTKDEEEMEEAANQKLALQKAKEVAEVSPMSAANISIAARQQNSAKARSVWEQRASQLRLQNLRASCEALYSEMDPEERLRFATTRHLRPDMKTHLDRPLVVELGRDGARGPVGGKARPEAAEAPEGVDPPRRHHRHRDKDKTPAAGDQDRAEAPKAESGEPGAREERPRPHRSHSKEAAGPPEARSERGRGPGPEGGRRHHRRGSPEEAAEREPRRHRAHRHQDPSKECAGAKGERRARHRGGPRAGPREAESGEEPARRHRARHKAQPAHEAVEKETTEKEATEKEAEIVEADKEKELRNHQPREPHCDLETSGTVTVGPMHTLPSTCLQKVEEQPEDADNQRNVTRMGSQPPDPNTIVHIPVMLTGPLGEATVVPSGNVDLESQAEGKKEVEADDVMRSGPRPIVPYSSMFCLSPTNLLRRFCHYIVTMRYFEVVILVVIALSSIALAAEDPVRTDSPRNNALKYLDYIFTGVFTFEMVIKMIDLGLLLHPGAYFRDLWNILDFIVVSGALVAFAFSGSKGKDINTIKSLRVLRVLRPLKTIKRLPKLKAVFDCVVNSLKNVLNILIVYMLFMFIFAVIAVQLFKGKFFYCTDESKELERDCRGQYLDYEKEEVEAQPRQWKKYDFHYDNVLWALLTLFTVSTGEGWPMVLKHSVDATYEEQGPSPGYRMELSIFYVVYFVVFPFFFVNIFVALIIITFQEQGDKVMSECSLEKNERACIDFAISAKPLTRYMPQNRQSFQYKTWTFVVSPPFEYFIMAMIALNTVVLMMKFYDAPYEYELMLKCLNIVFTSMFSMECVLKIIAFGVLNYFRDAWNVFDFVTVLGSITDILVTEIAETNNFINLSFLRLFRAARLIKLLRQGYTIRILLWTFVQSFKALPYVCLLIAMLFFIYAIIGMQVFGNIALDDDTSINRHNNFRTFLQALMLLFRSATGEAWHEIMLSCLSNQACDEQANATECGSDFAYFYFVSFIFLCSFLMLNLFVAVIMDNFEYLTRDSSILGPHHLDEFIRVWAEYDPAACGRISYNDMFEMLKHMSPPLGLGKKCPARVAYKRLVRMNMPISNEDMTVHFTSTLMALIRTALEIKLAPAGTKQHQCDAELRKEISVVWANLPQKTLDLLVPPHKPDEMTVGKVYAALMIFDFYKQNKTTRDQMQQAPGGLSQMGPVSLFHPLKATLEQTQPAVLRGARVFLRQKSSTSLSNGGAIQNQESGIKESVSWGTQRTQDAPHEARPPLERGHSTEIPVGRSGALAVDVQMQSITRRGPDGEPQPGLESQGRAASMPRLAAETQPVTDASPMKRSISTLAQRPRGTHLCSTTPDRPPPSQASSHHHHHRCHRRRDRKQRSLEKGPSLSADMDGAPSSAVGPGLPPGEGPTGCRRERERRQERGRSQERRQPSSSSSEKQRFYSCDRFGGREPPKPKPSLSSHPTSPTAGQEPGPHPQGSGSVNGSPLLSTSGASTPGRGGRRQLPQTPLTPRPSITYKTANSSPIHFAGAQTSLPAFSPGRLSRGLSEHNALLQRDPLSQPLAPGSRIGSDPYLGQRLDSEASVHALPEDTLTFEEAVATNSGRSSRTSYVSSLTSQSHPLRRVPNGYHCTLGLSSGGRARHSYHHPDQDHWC
Chain of Voltage-dependent T-type calcium channel subunit alpha-1H (Homo sapiens) (O95180 whole entry): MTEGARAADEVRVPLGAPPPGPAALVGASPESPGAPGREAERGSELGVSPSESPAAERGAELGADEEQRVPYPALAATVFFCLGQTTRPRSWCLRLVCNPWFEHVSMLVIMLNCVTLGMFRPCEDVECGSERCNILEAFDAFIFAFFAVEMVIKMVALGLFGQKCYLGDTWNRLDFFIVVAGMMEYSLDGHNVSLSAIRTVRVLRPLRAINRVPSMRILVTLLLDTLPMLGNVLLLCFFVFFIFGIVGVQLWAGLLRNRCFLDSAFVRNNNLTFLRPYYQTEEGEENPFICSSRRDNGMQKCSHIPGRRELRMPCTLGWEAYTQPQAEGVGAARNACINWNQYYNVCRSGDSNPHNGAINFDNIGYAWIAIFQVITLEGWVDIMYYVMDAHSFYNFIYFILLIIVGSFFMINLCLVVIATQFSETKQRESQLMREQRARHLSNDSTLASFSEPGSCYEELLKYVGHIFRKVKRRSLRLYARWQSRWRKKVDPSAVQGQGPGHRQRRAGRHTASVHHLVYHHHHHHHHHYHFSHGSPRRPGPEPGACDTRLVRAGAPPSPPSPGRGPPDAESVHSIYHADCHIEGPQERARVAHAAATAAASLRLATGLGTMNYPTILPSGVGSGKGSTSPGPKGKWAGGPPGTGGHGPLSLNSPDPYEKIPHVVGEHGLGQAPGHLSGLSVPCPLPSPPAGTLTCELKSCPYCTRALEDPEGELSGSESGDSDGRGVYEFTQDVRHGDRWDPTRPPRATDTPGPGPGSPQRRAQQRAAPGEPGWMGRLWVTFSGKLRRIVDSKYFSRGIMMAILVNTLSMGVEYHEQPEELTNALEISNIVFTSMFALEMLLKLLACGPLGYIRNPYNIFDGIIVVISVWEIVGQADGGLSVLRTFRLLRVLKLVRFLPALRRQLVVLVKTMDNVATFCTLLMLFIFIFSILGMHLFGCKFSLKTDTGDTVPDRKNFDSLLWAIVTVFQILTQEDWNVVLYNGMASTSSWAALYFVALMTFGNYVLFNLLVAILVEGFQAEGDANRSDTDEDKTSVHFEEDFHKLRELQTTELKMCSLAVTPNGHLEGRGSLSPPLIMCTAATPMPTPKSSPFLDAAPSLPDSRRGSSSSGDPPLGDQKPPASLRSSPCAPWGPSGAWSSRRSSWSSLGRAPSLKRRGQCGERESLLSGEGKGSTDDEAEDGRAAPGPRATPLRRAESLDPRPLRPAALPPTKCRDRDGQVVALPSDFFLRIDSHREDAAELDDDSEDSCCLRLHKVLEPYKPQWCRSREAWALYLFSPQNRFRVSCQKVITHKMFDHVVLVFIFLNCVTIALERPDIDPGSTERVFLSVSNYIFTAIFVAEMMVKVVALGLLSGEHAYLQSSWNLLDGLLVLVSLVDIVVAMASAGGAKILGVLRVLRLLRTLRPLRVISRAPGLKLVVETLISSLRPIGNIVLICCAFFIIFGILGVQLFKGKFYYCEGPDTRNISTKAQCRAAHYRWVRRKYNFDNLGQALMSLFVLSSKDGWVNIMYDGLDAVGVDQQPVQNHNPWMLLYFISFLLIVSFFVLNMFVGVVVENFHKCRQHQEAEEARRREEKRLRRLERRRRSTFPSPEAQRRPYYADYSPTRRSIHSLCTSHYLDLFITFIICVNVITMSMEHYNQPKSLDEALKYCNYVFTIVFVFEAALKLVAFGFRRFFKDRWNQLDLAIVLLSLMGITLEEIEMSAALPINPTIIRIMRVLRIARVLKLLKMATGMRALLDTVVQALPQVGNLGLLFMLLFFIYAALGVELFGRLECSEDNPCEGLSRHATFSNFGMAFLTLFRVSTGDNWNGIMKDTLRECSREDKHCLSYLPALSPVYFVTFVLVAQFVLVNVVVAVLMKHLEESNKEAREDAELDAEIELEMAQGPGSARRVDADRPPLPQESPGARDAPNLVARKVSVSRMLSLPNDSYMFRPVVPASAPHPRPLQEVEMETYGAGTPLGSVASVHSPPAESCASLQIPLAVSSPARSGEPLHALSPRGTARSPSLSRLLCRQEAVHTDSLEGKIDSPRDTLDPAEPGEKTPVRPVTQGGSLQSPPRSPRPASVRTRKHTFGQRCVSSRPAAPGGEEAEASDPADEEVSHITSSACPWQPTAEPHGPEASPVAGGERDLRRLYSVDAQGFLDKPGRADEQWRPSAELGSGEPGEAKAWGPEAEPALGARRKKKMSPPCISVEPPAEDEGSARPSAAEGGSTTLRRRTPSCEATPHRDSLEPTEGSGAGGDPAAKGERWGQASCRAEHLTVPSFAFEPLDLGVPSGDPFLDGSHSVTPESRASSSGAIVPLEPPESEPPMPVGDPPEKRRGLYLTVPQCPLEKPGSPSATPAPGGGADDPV

On to `O=C1OC[C@H](C(=O)NCc2ccccc2)N[C@H]1Cc1ccc(Cl)cc1` (relative stereo), for which the inhibition in assay [1] came to 19.1%.

`O=C(NCc1ccccc1)[C@@H]1COC(=O)[C@H](Cc2ccccc2)N1` (relative stereo): the IC50 in assay [2] was 1.01 µM. Besides, the results for the inhibition in assay [3], in assay [1] and in assay [4] were 4.8%, 87% and 78.9%, respectively. In addition, the Ratio in the assay filed under Homo sapiens came to 16.4.

Regarding `C[C@H](NC(=O)[C@@H]1COC(=O)[C@H](Cc2ccc(F)cc2)N1)c1ccccc1`, the inhibition in assay [1] is 35.6%.

Regarding `O=C(NC1CCCCC1)[C@@H]1COC(=O)[C@H](Cc2ccccc2)N1` (relative stereo), in assay [2], the concentration for half-maximal inhibition (IC50) came out at 2.18 µM. The results for the inhibition in assay [3], in assay [1] and in assay [4] were 9.4%, 76% and 73.6%, respectively. Also, the Ratio in the assay filed under Homo sapiens was 7.8.

In the case of `C[C@H](NC(=O)[C@@H]1COC(=O)[C@H](Cc2ccc([N+](=O)[O-])cc2)N1)c1ccccc1`, in assay [2], the IC50 stood at 2.13 µM. The inhibition worked out at 4% in assay [3], 60.8% in assay [1] and 80.2% in assay [4]. Besides, in the assay listed under Homo sapiens, the Ratio is 20.1.

In the case of `COc1ccc(C[C@@H]2N[C@@H](C(=O)NCc3ccccc3)COC2=O)cc1` (relative stereo), the inhibition in assay [1] turned out to be 16.2%.

`C[C@H](NC(=O)[C@H]1COC(=O)[C@H](Cc2ccc(Cl)cc2)N1)c1ccccc1`: in assay [2], the IC50 stood at 1.33 µM. In addition, the inhibition in assay [3] is 4%; in assay [1], 73.3%; in assay [4] it was 79%. In addition, in the assay filed under Homo sapiens, the Ratio turned out to be 19.8.

Regarding `CC(C)(C)NC(=O)[C@@H]1COC(=O)[C@H](Cc2ccccc2)N1` (relative stereo), in assay [1], the inhibition stood at 43%.

As to `O=C(NCc1ccccc1)[C@@H]1COC(=O)[C@H](Cc2ccc(F)cc2)N1` (relative stereo), the IC50 in assay [2] came to 2.75 µM. The inhibition was found to be 7.1% in assay [3], 70.9% in assay [1] and 77.6% in assay [4]. Moreover, in the assay filed under Homo sapiens, the Ratio came out at 10.9.

With `O=C1OC[C@H](C(=O)NC2CCCCC2)N[C@H]1Cc1ccccc1` (relative stereo), the inhibition in assay [1] was 30.3%.

In the case of `CC(C)(C)NC(=O)[C@H]1COC(=O)[C@H](Cc2ccccc2)N1` (relative stereo), the inhibition in assay [1] is 42%.

As to `C[C@H](NC(=O)[C@H]1COC(=O)[C@H](Cc2ccc(O)cc2)N1)c1ccccc1`, the inhibition in assay [1] was found to be 27.6%.

With `COc1ccc(C[C@@H]2N[C@H](C(=O)NCc3ccccc3)COC2=O)cc1` (relative stereo), in assay [2], the IC50 is 2.04 µM. The inhibition in assay [3] amounted to 2.5%; in assay [1] it was 54.6%; in assay [4], 74%. The Ratio in the assay filed under Homo sapiens amounted to 29.6.

Turning to `COCC(=O)O[C@]1(CCN(C)CCCc2nc3ccccc3[nH]2)CCc2cc(F)ccc2[C@@H]1C(C)C`, the figures for the inhibition in assay [3] and in assay [4] were 57.4% and 89.8%, respectively.

Regarding `C[C@H](NC(=O)[C@@H]1COC(=O)[C@H](Cc2ccc(O)cc2)N1)c1ccccc1`, the IC50 in assay [2] was 1.39 µM. The inhibition in assay [3] was 4.7%; in assay [1] it was 45.8%; in assay [4], 77%. The Ratio in the assay listed under Homo sapiens amounted to 16.4.

As to `CCC(C)[C@@H]1N[C@H](C(=O)NCc2ccccc2)COC1=O` (stereo not given in full), in assay [2], the half-maximal inhibitory concentration (IC50) was 1.22 µM. Also, the results for the inhibition in assay [3], in assay [1] and in assay [4] were 1.7%, 70% and 63.4%, respectively. For the same compound, the Ratio in the assay listed under Homo sapiens amounted to 37.3.

In the case of `Cc1ccc(S(=O)(=O)CNC(=O)[C@@H]2COC(=O)[C@H](Cc3ccccc3)N2)cc1` (relative stereo), the inhibition in assay [1] was found to be 13%.

As for `O=C1OC[C@H](C(=O)NCc2ccccc2)N[C@H]1Cc1ccc([N+](=O)[O-])cc1` (relative stereo), the inhibition in assay [1] was found to be 6.5%.

As to `CC(C)[C@@H]1N[C@H](C(=O)NCc2ccccc2)COC1=O` (relative stereo), the IC50 in assay [2] came out at 0.99 µM. For the same compound, the inhibition in assay [3] came to 25.3%; in assay [1], 82%; in assay [4], 78.8%. Further, the Ratio in the assay listed under Homo sapiens turned out to be 3.1.

Consider `C[C@H](NC(=O)[C@@H]1COC(=O)[C@H](Cc2ccc(Cl)cc2)N1)c1ccccc1`, for which the IC50 in assay [2] was determined as 1.61 µM. The inhibition in assay [3] came to 10.9%; in assay [1], 48.4%; in assay [4], 64%. The Ratio in the assay listed under Homo sapiens was determined as 5.9.

In the case of `C[C@H](NC(=O)[C@H]1COC(=O)[C@H](Cc2ccc(F)cc2)N1)c1ccccc1`, the IC50 in assay [2] turned out to be 1.48 µM. Moreover, the inhibition in assay [3] was determined as 11.3%; in assay [1], 83.6%; in assay [4] it was 80.8%. Moreover, the Ratio in the assay listed under Homo sapiens was determined as 7.2.

Take `C[C@H](NC(=O)[C@H]1COC(=O)[C@H](Cc2ccc([N+](=O)[O-])cc2)N1)c1ccccc1`: the inhibition in assay [1] was 25.2%.

Consider `O=C(NCc1ccccc1)[C@@H]1COC(=O)[C@H](Cc2ccc(Cl)cc2)N1` (relative stereo), for which the IC50 in assay [2] worked out at 0.45 µM. In addition, the inhibition came out at 33.7% in assay [3], 73.5% in assay [1] and 83.6% in assay [4]. Further, in the assay listed under Homo sapiens, the Ratio worked out at 2.5.

Take `O=C(NCc1ccccc1)[C@@H]1COC(=O)[C@H](Cc2ccc([N+](=O)[O-])cc2)N1` (relative stereo): the IC50 in assay [2] was 1.13 µM. The inhibition in assay [3] turned out to be 7.6%; in assay [1], 74.8%; in assay [4] it was 86.2%. In addition, in the assay filed under Homo sapiens, the Ratio is 11.3.

Consider `Cc1ccc(S(=O)(=O)CNC(=O)[C@H]2COC(=O)[C@H](Cc3ccccc3)N2)cc1` (relative stereo), for which the inhibition in assay [1] came out at 25%.

As for `O=C1OC[C@H](C(=O)NCc2ccccc2)N[C@H]1Cc1ccc(F)cc1` (relative stereo), the inhibition in assay [1] was 12.3%.

`CSCC[C@@H]1N[C@H](C(=O)NCc2ccccc2)COC1=O` (relative stereo): in assay [2], the IC50 was determined as 1.86 µM. Moreover, the inhibition in assay [3] amounted to 15.4%; in assay [1], 74%; in assay [4], 75.1%. Also, the Ratio in the assay filed under Homo sapiens was 4.9.

For `O=C1OC[C@H](C(=O)NCc2ccccc2)N[C@H]1Cc1ccccc1` (relative stereo), the inhibition in assay [1] worked out at 5%.
